{"source": "patent US20110166077A9", "about": "“COMBINED THERAPY AGAINST TUMORS COMPRISING SUBSTITUTED ACRYLOYL DISTAMYCIN DERIVATIVES AND RADIOTHERAPY” (Pharmacia Italia S.p.A., priority 2002, published 2011)", "key": {"[1]": {"tested_on": "SQ20B (radiation-resistant human squamous cell carcinoma of the larynx) cell line", "experiment": "in vitro clonogenic assay, drug combined with ionizing radiation, SQ20B", "assay_type": "cell-based", "settings": "for C20 drug concentration corresponding to 20% cell survival / C80 drug concentration corresponding to 80% cell survival: drug alone, 2 h treatment; for Sensitization Ratio SR, Values for each culture: simultaneous schedule (2 h drug, 10 min irradiation at start of 2nd hour), SR<1 = radiosensitisation; for Sensitization Ratio SR, Mean of duplicates: simultaneous schedule", "procedure": "(§1) The remarkable radiosensitisation effect exerted by the α-bromo- or α-chloro-acryloyl-distamycin derivatives, in particular the compounds of formula (I), is shown according to in vitro clonogenic assays on SQ20B (radiation-resistant human squamous cell carcinoma of the larynx) and A431 (human vulval carcinoma) cell lines. In this respect, two different schedule treatments were evaluated either comprising simultaneous exposure to the tested compound of formula (I) and to radiation, or sequential exposure to both these cytotoxic agents in any order, that is drug/radiation or radiation/drug (see details below). As control, the effect of cisplatin in combination with radiotherapy has been tested in the same operative conditions.\n(§2) To define a Sensitization Ratio (SR), the clonogenic survival of cells being treated with a combination of irradiation and drug exposure (SX+D) was compared with the product of survival for drug alone (SD) and irradiation alone (SX), as follows SR=SX+D/SD*SX\n(§3) From the above, it is clear to the skilled person that if both radiation and drug exerted their cytotoxic effect independently from each other, SR values would be close to 1 whereas, on the contrary, a radiosensitisation effect indicating a synergism between ionizing radiation and drug is characterized by SR values lower than 1 (SR<1).\n(§4) For both compounds Compound A and cisplatin, exposures were simultaneous to ionizing radiation in both SQ20B and A431 cell lines. The schedule consisted of 2 h drug treatment with a period of irradiation (10 minutes) starting at the beginning of the 2nd hour of treatment.\n(§5) Four data sets for each of Compound A and cisplatin, in each cell line were obtained (see table 1) comprising duplicates of two different drug concentration chosen to yield cytotoxicity values corresponding to 80% (C80) and 20% (C20) survival for treatment with the drug alone. […]"}, "[2]": {"tested_on": "A431 (human vulval carcinoma) cell line", "experiment": "in vitro clonogenic assay, drug combined with ionizing radiation, A431", "assay_type": "cell-based", "settings": "for C20 drug concentration corresponding to 20% cell survival / C80 drug concentration corresponding to 80% cell survival: drug alone, 2 h treatment; for Sensitization Ratio SR, Values for each culture: simultaneous schedule (2 h drug, 10 min irradiation at start of 2nd hour), SR<1 = radiosensitisation; for Sensitization Ratio SR, Mean of duplicates: simultaneous schedule", "procedure": "as §1, §2, §3, §4, §5"}, "[3]": {"settings": "drug at C20 (Compound A 350 ng/ml, cisplatin 6.5 μM)"}, "[4]": {"settings": "drug at C80 (Compound A 50 ng/ml, cisplatin 0.4 μM)"}, "[5]": {"settings": "drug at C20 (Compound A 90 ng/ml, cisplatin 5.0 μM)"}, "[6]": {"settings": "drug at C80 (Compound A 20 ng/ml, cisplatin 0.8 μM)"}}, "note": "Where “and” joins values, the source holds several entries; their conditions need not be identical. Identical values can stand only once. Marks after values point to notes of the source that are not given here.", "data": [{"smiles": "C=C(Br)C(=O)Nc1cc(C(=O)Nc2cc(C(=O)Nc3cc(C(=O)Nc4cc(C(=O)NCCNC(=N)N)n(C)c4)n(C)c3)n(C)c2)n(C)c1.Cl", "note": "[Compound A, N-[5-[[[5-[[[2-[(animoiminomethyl)amino]ethyl]amino]carbonyl]-1-methyl-1H-pyrrol-3-yl]amino]carbonyl]-1-methyl-1H-pyrrol-3-yl]-4-[[[4-[(2-bromo-1-oxo-2-propenyl)amino]-1-methyl-1H-pyrrol-2-yl]carbonyl]amino]-1-methyl-1H-pyrrole-2-carboxamide hydrochloride]", "values": [{"measurement": "Sensitization Ratio SR / radiosensitisation effect", "setting": "[1]; combination with radiotherapy, summary over concentrations", "result": "lower than 1"}, {"measurement": "C20 drug concentration corresponding to 20% cell survival", "setting": "[1]", "result": "350 (C20)^(d) ng/ml"}, {"measurement": "C80 drug concentration corresponding to 80% cell survival", "setting": "[1]", "result": "50 (C80)^(c) ng/ml"}, {"measurement": "Sensitization Ratio SR, Values for each culture", "setting": "[1]; drug at C20 (Compound A 350 ng/ml, cisplatin 6.5 μM), hydrochloride", "result": "0.55 and 0.46"}, {"measurement": "Sensitization Ratio SR, Values for each culture", "setting": "[1]; drug at C80 (Compound A 50 ng/ml, cisplatin 0.4 μM), hydrochloride", "result": "0.84 and 0.85"}, {"measurement": "Sensitization Ratio SR, Mean of duplicates", "setting": "[1]; [3]", "result": "C20 0.50"}, {"measurement": "Sensitization Ratio SR, Mean of duplicates", "setting": "[1]; [4]", "result": "C80 0.85"}, {"measurement": "C20 drug concentration corresponding to 20% cell survival", "setting": "[2]", "result": "90 (C20) ng/ml"}, {"measurement": "C80 drug concentration corresponding to 80% cell survival", "setting": "[2]", "result": "20 (C80) ng/ml"}, {"measurement": "Sensitization Ratio SR, Values for each culture", "setting": "[2]; drug at C20 (Compound A 90 ng/ml, cisplatin 5.0 μM), hydrochloride", "result": "0.33 and 0.40"}, {"measurement": "Sensitization Ratio SR, Values for each culture", "setting": "[2]; drug at C80 (Compound A 20 ng/ml, cisplatin 0.8 μM), hydrochloride", "result": "0.65 and 0.59"}, {"measurement": "Sensitization Ratio SR, Mean of duplicates", "setting": "[2]; [5]", "result": "C20 0.37"}, {"measurement": "Sensitization Ratio SR, Mean of duplicates", "setting": "[2]; [6]", "result": "C80 0.62"}]}, {"smiles": "N.N.[Cl][Pt][Cl]", "note": "[cisplatin, reference compound]", "values": [{"measurement": "C20 drug concentration corresponding to 20% cell survival", "setting": "[1]", "result": "6.5 (C20) μM"}, {"measurement": "C80 drug concentration corresponding to 80% cell survival", "setting": "[1]", "result": "0.4 (C80) μM"}, {"measurement": "Sensitization Ratio SR, Values for each culture", "setting": "[1]; [3]", "result": "0.72 and 0.81"}, {"measurement": "Sensitization Ratio SR, Values for each culture", "setting": "[1]; [4]", "result": "0.78 and 0.82"}, {"measurement": "Sensitization Ratio SR, Mean of duplicates", "setting": "[1]; [3]", "result": "C20 0.77"}, {"measurement": "Sensitization Ratio SR, Mean of duplicates", "setting": "[1]; [4]", "result": "C80 0.80"}, {"measurement": "C20 drug concentration corresponding to 20% cell survival", "setting": "[2]", "result": "5.0 (C20) μM"}, {"measurement": "C80 drug concentration corresponding to 80% cell survival", "setting": "[2]", "result": "0.8 (C80) μM"}, {"measurement": "Sensitization Ratio SR, Values for each culture", "setting": "[2]; [5]", "result": "1.08 and 0.86"}, {"measurement": "Sensitization Ratio SR, Values for each culture", "setting": "[2]; [6]", "result": "1.02 and 0.84"}, {"measurement": "Sensitization Ratio SR, Mean of duplicates", "setting": "[2]; [5]", "result": "C20 0.97"}, {"measurement": "Sensitization Ratio SR, Mean of duplicates", "setting": "[2]; [6]", "result": "C80 0.96"}]}]}
